Data: US20020165283A1, “Preservative blends containing quaternary ammonium compounds” (LONZA INC., priority 2001, published 2002)

Test system: S. aureus, P. aeruginosa, and E. coli
Test: Mixed bacterial challenge of preserved anionic protein shampoo samples (plate counts)
Assay type: cell-based
Protocol: Each anionic shampoo sample in Table 1 below was tested as follows. A standardized mixed bacterial solution was prepared according to the following procedure. 3 agar stabs of S. aureus (ATCC#6538), P. aeruginosa (ATCC#9027), and E. coli (ATCC #8739) were separately incubated at about 35° C. for about 24 hours. Each stab was then washed with 3 mL of sterile 0.85% saline solution. The washes of the 3 stabs were pooled together to form an organism mixture. The absorbance of the organism mixture at 530 nm was adjusted to about 1.00 by adding saline. The spectrometer was calibrated with a saline blank. A 5 mL aliquot of the organism mixture was mixed together to produce the standardized mixed bacterial solution. Then, 40 g of each shampoo sample was inoculated with 0.2 mL of the standardized mixed bacterial solution and mixed. 1 g of the mixture was added to a sterile 20×150 mm screw cap test tube. 9 mL of sterile D/E neutralizer broth was added to the test tube and mixed to form a 10^−1 dilution,. Serial dilutions were prepared through to a 10^−6 dilution with phosphate buffered water. The serial dilutions were plated onto Tryptic Soy Agar and incubated for 2 days at about 35° C. Bacteria counts were performed after 0 and 14 days.
The anionic protein shampoo composition was comprised of 35% by weight of sodium lauryl ether sulfate; 25% by weight of triethanolamine lauryl sulfate; 3% by weight coconut diethanolamide (cocamide DEA); 1% by weight of hydrolyzed collagen, available as Polypro 5000™ from Hormel Foods of Austin, Minn.; and 36% by weight of deionized water.
The sodium dehydroacetate monohydrate, sodium salicylate, and Hyamine® 1622 shampoo samples were prepared by mixing the appropriate amounts of the preservatives and the aforementioned anionic protein shampoo composition and heating the mixture to about 50° C. for about 15 minutes.
(§1) The procedure described in Example 1 was repeated with the anionic shampoos in Table 3 below. The bacterial counts were performed after 0 and 7 days. The dehydroacetic acid (available from Lonza Inc. of Fair Lawn, N.J.) and Hyamine® 1622 shampoo samples were prepared by mixing the appropriate amounts of the preservatives and the anionic protein shampoo composition and heating the mixture to about 50° C. for about 15 minutes.
as §1, with “5” for “3”, “salicylic” for “bacterial counts were performed after 0 and 7 days. The dehydroacetic”, “Spectrum Chemical” for “Lonza Inc.”, “New Brunswick,” for “Fair Lawn,”, “for” for “for about”

[1] = Table 1, 1.0% by weight of preservative alone
[2] = Table 5, 0.2% of preservative alone
[3] = Table 1, 0.5% by weight of preservative alone

O=C([O-])c1ccccc1O.[Na+] [Sodium Salicylate, Sodium salicylate] was tested, and the “S. aureus, P. aeruginosa, and E. coli (cfu/g) Day 0” value [1] was 3.0 × 10^6 cfu/g and the “S. aureus, P. aeruginosa, and E. coli (cfu/g) Day 14” value [1] was 5.0 × 10^2 cfu/g.
With O=C(O)c1ccccc1O [Salicylic Acid, salicylic acid] the “S. aureus, P. aeruginosa, and E. coli (cfu/g) Day 0” value [2] was 3.1 × 10^6 cfu/g and the “S. aureus, P. aeruginosa, and E. coli (cfu/g) Day 14” value [2] was 6.5 × 10^6 cfu/g.
CC(=O)C1C(=O)C=C(C)OC1=O (centres unmarked) [Dehydroacetic Acid, dehydroacetic acid] was tested, and the “S. aureus, P. aeruginosa, and E. coli (cfu/g) Day 0” value (Table 3, 0.2% of preservative alone) was 2.5 × 10^6 cfu/g and the “S. aureus, P. aeruginosa, and E. Coli (cfu/g) Day 7” value (Table 3, 0.2% of preservative alone, Day 7) was 4.4 × 10^4 cfu/g.
In the case of CC(=O)c1c([O-])cc(C)oc1=O.O.[Na+] [Sodium Dehydroacetate Monohydrate, Sodium dehydroacetate monohydrate], the “S. aureus, P. aeruginosa, and E. coli (cfu/g) Day 0” value [3] is reported as 3.0 × 10^6 cfu/g and the “S. aureus, P. aeruginosa, and E. coli (cfu/g) Day 14” value [3] is reported as 4.0 × 10^3 cfu/g.
